Assay results published in patent US5935840A, “Activated recombinant adenovirus proteinases” (priority 1995, dated 1999).
“Also recorded” adds a separate entry of the source.

What was measured:
[1] = tested on: Ad2 major core protein precursor, pVII; experiment: Assay of adenovirus proteinase activity in crude extracts: cleavage of [35S]-methionine-labeled pVII (SDS-PAGE, autoradiography); assay type: biochemical, adenovirus type 2; conditions: for Proteinase activity (cleavage of pVII): extracts of IPTG-induced, log phase cells
Procedure: The expression products of the above-described Ad2 and Ad12 proteinase plasmids were tested for their ability to cleave the Ad2 major core protein precursor, pVII, in crude extracts from adenovirus-infected cells. The extracts were obtained from human cells infected with the temperature-sensitive mutant Ad2 strain, H2ts1, which has a defective proteinase. As described below, adenovirus proteinase activity requires the presence of two cofactors. […] The recombinant proteinases were also characterized by peptide sequence analysis of their amino-termini.
Bacterial extracts were incubated with the radiolabeled substrate (pVII). Samples were removed at different times and analyzed by SDS-PAGE and autoradiography. […] Appearance of the processed VII band and concurrent decrease of the precursor pVII band indicates proteinase activity. Radiolabeled proteins of Ad2 virions were run on the gel to indicate the positions of pVII, VII, and other virion components (lane a). Extracts from Ad2 -infected HeLa cells were assayed as a positive control for proteinase activity (lane b).
Adenovirus proteinase activity was monitored by the cleavage of [^35 S]-methionine-labeled major core precursor (pVII) essentially as described (Bhatti and Weber, Biochem. Biophys. Res. Comm. 81: 973-797, (1978)). The proteinase substrate was prepared from Ad2Ad2tsl-infected HeLa cells grown at 39° C. and labeled with [^35 S]-methionine (200 μCi/plate) from approximately 28 to 30 hours after infection. Labeled cultures were harvested, washed twice in Phosphate Buffered Saline (PBS), resuspended in 1.0 ml of 10 mM sodium phosphate buffer, pH 7.4, per plate, and sonicated for 40 seconds using a water-cooled sonicator horn (Branson Sonic Power Co., Danbury, Conn.). The extract was then centrifuged at 12,000×g for 10 minutes, and the pellet was resuspended in 10 mM phosphate buffer.
Extracts of Ad-infected cells, harvested 40 hours after infection at 37° C. were used as a source of viral proteinase. Harvested cultures were washed twice with PBS, resuspended in 10 mM phosphate buffer, frozen and thawed once, and centrifuged at 12,000×g for 10 minutes. Pellets were resuspended in 1.0 ml phosphate buffer, pH 7.4, per 10^6 infected cells and sonicated 4×10 seconds; samples were stored at -70° C. Bacterial extracts were prepared by lysozyme-EDTAtreatment of cultures harvested 2 hours after IPTG induction.
Assays were performed by mixing equal volumes of [^35 S]-labeled substrate and test extract and incubating at 37° C. At different times, 25 μl samples were removed, mixed with 25 μl of SDS Sample Buffer, heated to 90° C., and analyzed by SDS-polyacrylamide gel electrophoresis and autoradiography as described (Anderson et al., J. Virol. 12: 241-252 (1973).
Recombinant proteinase polypeptides were assayed for proteinase activity by incubating whole-cell extracts of BL21 (DE3), pT7AD23K5/BL21(DE3), and pT7AD23k6/BL21(DE3), prepared as described above, with extracts of [^35 S]-methionine-labeled Ad2 virion precursor polypeptides. Incubation of the labeled extract at 37° C. for up to 20 hours, alone or with an extract prepared from uninfected HeLa cells, produced little change in the pattern of labeled polypeptides.

HEP1DBP = experiment: Cleavage of artificial protein substrate HEP1DBP (SDS-polyacrylamide gel electrophoresis); assay type: biochemical
Excerpt: Recombinant protein substrates that resemble natural virion precursors, such as pVI, can be produced in E. coli by genetic engineering methods similar to those used for expression of recombinant adenovirus proteinase. The recombinant substrate may have an artificial leader sequence that can be removed by proteinase-mediated cleavage. The leader can be designed to aid in purification of the substrate; thus the recombinant substrate can be produced and purified much more efficiently than natural adenovirus substrates. Recombinant protein substrates also serve as prototypes of potential commercial products, showing that the adenovirus proteinase will remove an artificial leader sequence from a recombinant protein that is not related to any adenovirus protein. The first artificial protein substrate was called HEP1DBP. It consists of a 17 amino acid leader (Met-Ala-Ser-Met-Thr-Gly-His-His-His-His-His-His-Gly-Met-Ser-Gly-Gly-) (SEQ ID NO: 37) attached to the initiating methionine of the 232 amino acid DNA binding protein (DBP), of bacteriophage T7. The T7 DBP is the product of gene 2.5. The recombinant proteinase substrate is produced by induction of a pET expression plasmid called pT7HEP1DBP (also called pT7HIS2) (FIG. 7A and Example 11); the predicted sequence of the expressed substrate is given in Table 1. The leader sequence contains six consecutive histidine residues to permit purification by metal affinity chromatography in a manner analogous to purification of the adenovirus proteinase. Immediately preceding the methionine corresponding to the initiation site of the T7 DBP is the tetra-amino acid element -Met-Ser-Gly-Gly- (SEQ ID NO: 38). This segment corresponds to the proteinase recognition sequence in the adenovirus virion precursor polypeptide pVI. The size of the leader sequence was chosen so that the substrate precursor HEP1DBP, and the predicted major product after cleavage, the T7 DBP, could easily be distinguished by SDS-polyacrylamide gel electrophoresis.
When purified HEP1DBP was incubated with disrupted wild-type adenovirus 2 virions, it was cleaved, as determined from the change in its mobility during SDS-polyacrylamide gel electrophoresis. No cleavage was observed when incubation was with disrupted H2ts1 virions alone.
Plasmid pT7HEP1DBP (5346 bp) is a pET-3 derivative that expresses the […] T7 gene 2.5 protein (a single-stranded DNA binding protein) attached to a 17-amino acid leader sequence (FIG. 19). The 249-amino acid HEP1DBP polypeptide serves as an artificial substrate for the adenovirus EP; the leader peptide, MASMTGHHHHHHGMSGG- (SEQ ID NO: 37), ends with the Ad2 proteinase recognition sequence -MSGG- (SEQ ID NO: 38) [Anderson, C. […]

[2] = Solubility of bacterially expressed proteinases (10,000×g supernatant/pellet of lysed E. coli); assay type: physicochemical
Procedure: The 23k5 and 23k6 products were tested for solubility as an indication of protein folding. Induced bacteria were harvested and lysed with lysozyme-EDTA, and 10,000×g supernatants were prepared.
The expressed proteinase polypeptides were then tested for solubility. Induced bacteria were harvested and lysed with lysozyme-EDTA, and 10,000×g supernatants were prepared. In each case, the majority of the proteinase polypeptide was found in the 10,000×g pellet. When pellet fractions were analyzed by SDS-polyacrylamide gel electrophoresis in the absence of a reducing agent, only a small fraction of the proteinase polypeptides entered the stacking gel, showing that most of the bacterially synthesized proteinase was misfolded and crosslinked through disulfide bonds. This finding was true for both pT7AD23K5 products (23k5a and 23k5b) as well as for the 23k6 polypeptide.

[3] = tested on: (Leu-Arg-Gly-Gly-NH)2 -rhodamine; experiment: Fluorescence assay of proteinase activity of virus and recombinant proteinase preparations; assay type: biochemical
Excerpt: The nature of the proteinase cofactor(s) was pursued with the aid of the second assay, which utilizes the substrate (Leu-Arg-Gly-Gly-NH)2 -rhodamine. The design of this substrate was based on two facts. (1) It was known that the proteinase present in disrupted Ad2 virions would cleave small peptides with sequence similar to that found at natural cleavage sites in adenovirus virion precursors (Webster et al., 1989). (2) Cleavage of either tetra-peptide sequence from the substituted rhodamine substrate produces a very large increase, up to a 3500-fold, in fluorescence. Under conditions where only a small fraction of the rhodamine substrate is cleaved, the increase in fluorescence is proportional to the amount of proteinase present and to the time of incubation. Thus, the fluorescence assay provides a quantitative method for assessing proteinase activity that is more sensitive convenient and rapid than the gel electrophoresis assay.
Assays were performed in 400 μl of Assay Buffer (50 mM Tris-HCl, pH 7.4, 25 mM NaCl, 10 mM octylglucoside, and 1 mM dithiothreitol). […] When present, the number of disrupted virus particles was 10^10 and the amount of recombinant proteinase was 0.12 mAU280 nm. […] After 30 minutes at 37° C., a 360 μl aliquot of the reaction was added to 340 μl of Assay Buffer minus octylglucoside, and the increase in fluorescence was measured. The excitation wavelength was 492 nm and the emission wavelength was 523 nm, both with a bandwidth of 5 nm. The change in fluorescence, ΔF, is the magnitude of the fluorescence from the sample minus the magnitude of the fluorescence from an identical solution without enzyme.
Disrupted virus was obtained as follows: Twice CsCl-banded virus was dialyzed against 10 mM Tris-HCl, pH 8.0, 1mM EDTA and centrifuged at 100,000×g for 1 hour. The pellet was suspended in 10 mM Tris-HCl, pH 6.8, containing 20% (v/v) glycerol and, after three 10 second bursts of sonication, was stored at -20° C. The fluorogenic substrate was synthesized and purified at BNL by Dr. Walter Mangel, using methods similar to those previously described by Dr. Mangel. These methods are described in two U.S. Patents (U.S. Pat. No. 4,557,862 entitled "Rhodamine derivatives as fluorogenic substrates for proteinases" by Mangel, W. F., Leytus, S., and L. Helhado; issued Dec. 10, 1985; U.S. patent application Ser. No. 780,552; "Novel rhodamine derivatives as fluorogenic substrates" by Mangel, W. F., Leytus, S., and L. Helhado; filing date Sep. 24, 1985) and in other publications by Mangel and co-workers.

[4] = incubated with HEP1DBP alone, no added cofactors

23K8: recombinant wild-type Ad2 proteinase from pT7AD23K8 (gene with AflII site)
Activity/Conditions ([1]; Induced, log phase): Active
Proteinase activity (cleavage of pVII) [1]: active
Cleavage of HEP1DBP (HEP1DBP; incubated together with disrupted H2ts1 virions): cleavage was obtained
Cleavage of HEP1DBP (HEP1DBP; [4]): no cleavage

23K6: recombinant wild-type 204/203 amino acid Ad2 proteinase expressed from pT7AD23k6 in E. coli
Stability of processing activity in the bacterial extracts ([1]; 37° C.): about 2 hours
Activity/Conditions ([1]; Induced, log phase): Active
Time by which virtually all of pVII had been converted to VII ([1]; bacterial extract, 37° C.): ≤ 2 hours
Proteinase activity (cleavage of pVII) [1]: significant proteinase activity; also recorded: active
Cleavage of HEP1DBP (HEP1DBP; [4]): no cleavage
Part of recombinant proteinase that folds into a soluble protein ([2]; incubation temperature lowered to 30° at addition of IPTG): approximately half
Solubility of expressed proteinase ([2]; induced bacteria lysed with lysozyme-EDTA, 10,000×g): majority of the proteinase was found in the insoluble pellet

rEP protein: purified recombinant Ad2 proteinase, an activatable proteinase
Rate of substrate hydrolysis by the rEP protein alone ([3]; 8.3 nM rEP protein, 1 μM substrate, no cofactors): less than 0.014 pmol substrate min^-1
Proteinase activity in fluorescence assay ([3]; complemented with disrupted H2ts1 virus): Activity was obtained
Proteinase activity in fluorescence assay ([3]; preparation alone): no activity

H2ts1: ts Ad2 proteinase with P to L mutation in codon 137, expressed from pT7AD23K18
Activity/Conditions ([1]; no growth conditions printed): Temperature-
EP activity (HEP1DBP; DEAE flow-through fractions from pT7AD23K18/BL21(DE3) grown at 30° C., in the presence of H2ts1 virions, substrate not stated): No EP activity
